Values joined by “and” are separate entries in the source; they are usually repeats but may differ in a detail not shown here. Identical values can stand only once. Like-named read-outs stand apart in the source and are kept apart here. Marks after values point to notes of the source that are not given here.
Experiments:
[1] = In vitro drug release of MTG from gels (Franz cell); conditions: nylon membrane, time point not clearly stated (steady release up to 2 h)
Description: (§1) The in vitro permeation study was performed in triplicate using Franz diffusion cell apparatus with a diffusion area of ~ 0.8 cm^2 and a receptor volume of ~ 3 mL. The porcine skin was thawed at room temperature and cut into an appropriate size before mounting on the Franz diffusion cells. The receptor compartment was filled with PBS containing 0.02%w/v of sodium azide and a selected antioxidant. The Franz diffusion cells were placed into a water bath to maintain the skin temperature at 32 ± 0.5 °C. […] After 48-h permeation studies, the mass balance studies were performed. The samples were extracted for MTG content overnight before HPLC analysis.
(§2) BHT at the optimised concentration was also added accordingly. The gels were evaluated for their drug content by mixing the gel in methanol for overnight extraction of MTG before HPLC analysis (Sect. HPLC analysis). In vitro drug release studies were carried out with a similar experimental setup as described in Sect. In vitro permeation and mass balance studies but porcine skin was replaced with a 0.45 µm nylon membrane filter and 40 μL of gel was loaded on the membrane at the donor compartment. Subsequent in vitro permeation and mass balance studies were performed as described in Sect. In vitro permeation and mass balance studies by loading 40 μL of the gel on the skin.

[2] = In vitro skin permeation of MTG from gel formulations, with infinite dose model fitting; assay type: in vitro ADME, porcine; conditions: for Permeation (cumulative amount of MTG permeated): 48 h
Description: as §1
(§3) To estimate the permeation parameters (P1 and P2), the in vitro permeation data were fitted to the infinite dose model (Eq. 1) using non-linear least squares. This infinite dose model was obtained by solving the diffusion equation using Laplace transform, which was subsequently numerically inverted using Weeks method and fitted to in Python 3.13.3 (Python Software Foundation, Wilmington, DE, US).1 Q¯s=J·A/s=P1ACd/ss/P2sinhs/P2
(§4) Here, Q¯s is the cumulative amount of drug permeated, J is the permeation flux, A is the permeation area, Cd is the initial concentration, h is the membrane thickness and s is the Laplace variable. The apparent partition and apparent diffusion coefficients, P1 and P2, are related to the h and the diffusion (D) and partition (K) coefficients, as defined in Eq. 2 and Eq. 3 [32]. The goodness of fit was measured based on the coefficient of determination (R^2) and root mean square error (RMSE).2 P1=Kh 3 P2=D/h^2
(§5) The permeability coefficient (Kp), steady-state flux (Jss) and lag time (tlag) can then be calculated using Eqs. 4, 5, and 6 [33] with the estimated values of P1 and P2 from the curve fitting.4 Kp=P1P2 5 Jss=KpCd 6 tlag=h^2/6D
(§6) Other permeation parameters were determined experimentally, where A was 0.7–0.8 cm^2, h was 0.0586 cm, Cd was 50 mg/mL and the volume of drug loaded was 40 µL.
as §2

[3] = In vitro skin permeation of 5%w/v MTG in single solvents (Franz diffusion cells), with infinite dose model fitting; assay type: in vitro ADME, porcine; conditions: for Papp at 48 h, 5 %w/v: pig, read-out: Kp (permeability coefficient) (converted)
Description: as §1, with “performed.” for “performed. The samples were extracted for MTG content overnight before HPLC analysis.”
Samples were analysed using Shimadzu liquid chromatographic system (Kyoto, Japan) with SPD-20A UV–vis detector set at 254 nm. A reverse phase ZORBAX Eclipse Plus C18 column (Agilent Technologies, 150 × 4.6 mm ID × 3.5 μm) coupled with a C18 guard column (Phenomenex SecurityGuard™, 4 × 3.0 mm ID × 5 μm) was employed as the stationary phase. A gradient elution method with acetonitrile and 0.1%v/v of formic acid as the mobile phase (30:70 to 70:30 (v/v) over 1 min and held until 4 min; then returned to 30:70 (v/v) from 4 to 6 min and held up until 10 min) at a flow rate of 1.2 mL/min was used. The injection volume was set at 100 μL and the total run time was 10 min with a retention time of ~ 4 min.
as §3, §4, §5, §6

[4] = 5%w/v MTG in DMSO, receptor PBS with 0.01%w/v ascorbic acid (DMSO-AA), 48 h
[5] = 5%w/v MTG in DMSO, receptor PBS without ascorbic acid, 48 h
[6] = 5%w/v MTG in Labrasol, receptor PBS with 0.01%w/v ascorbic acid (Labrasol-AA), 48 h
[7] = 5%w/v MTG in Lauroglycol, receptor PBS with 0.01%w/v ascorbic acid (Lauroglycol-AA), 48 h
[8] = 5%w/v MTG in Maisine, receptor PBS with 0.01%w/v ascorbic acid (Maisine-AA), 48 h
[9] = 5%w/v MTG in Maisine, receptor PBS without ascorbic acid, 48 h
[10] = 5%w/v MTG in PG, receptor PBS with 0.01%w/v ascorbic acid (PG-AA), 48 h
[11] = 5%w/v MTG in PG, receptor PBS without ascorbic acid, 48 h
[12] = 5%w/v MTG in Transcutol, receptor PBS with 0.01%w/v ascorbic acid (Transcutol-AA), 48 h
[13] = 5%w/v MTG in Transcutol, receptor PBS without ascorbic acid, 48 h
[14] = 5%w/v in dimethyl sulphoxide and Transcutol, optimised receptor medium (0.01%w/v ascorbic acid in PBS)

CC[C@@H]1CN2CCc3c([nH]c4cccc(OC)c34)[C@@H]2C[C@@H]1/C(=C\OC)C(=O)OC [MTG, mitragynine]
Drug release percentage ([1]; 1% MTG gel with DMSO): 65.07 ± 7.59% | Drug release percentage ([1]; 1% MTG gel with PG): 57.45 ± 3.18% | Drug release percentage ([1]; 1% MTG gel with Transcutol): 78.48 ± 6.17% | Permeation (cumulative amount of MTG permeated) ([2]; 1% MTG gel with DMSO and BHT): 4.76 ± 0.79 μg/cm^2 | Jss (steady-state flux) ([2]; 1% MTG gel with PG and BHT): 0.95 μg/cm^2/h | Permeation (cumulative amount of MTG permeated) ([2]; 1% MTG gel with PG and BHT): 4.92 ± 0.44 μg/cm^2 | Permeation (cumulative amount of MTG permeated) ([2]; 1% MTG gel with Transcutol and BHT): 3.95 ± 0.81 μg/cm^2 | tlag (lag time) ([2]; across all gel formulations): 9 to 14 h | Papp at 1 % ([2]; pig, 1% MTG gel with DMSO and BHT, read-out: Kp (permeability coefficient) (converted)): 0.00447 ×10⁻⁶ cm/s | Papp at 1 % ([2]; pig, 1% MTG gel with PG and BHT, read-out: Kp (permeability coefficient) (converted)): 0.00525 ×10⁻⁶ cm/s | Papp at 48 h, 1 % ([2]; pig, 1% MTG gel with Transcutol and BHT, read-out: Kp (permeability coefficient) (converted)): 0.00376 ×10⁻⁶ cm/s | Jss (steady-state flux) [3, 4]: 0.77 ± 0.18 µg/cm^2/h and 0.77 ± 0.18^d µg/cm^2/h | P1 (apparent partition coefficient) [3, 4]: 20.35 ± 8.07 × 10^–4 cm | P2 (apparent diffusion coefficient) [3, 4]: 8.01 ± 1.91 × 10^–3 h^−1 | Permeation (cumulative amount of MTG permeated) [3, 4]: 15.40 ± 2.40 µg/cm^2 | tlag (lag time) [3, 4]: 21.53 ± 4.53 h | Cumulative amount of MTG permeated [3, 5]: 14.40 ± 3.34 μg/cm^2 | Jss (steady-state flux) [3, 5]: 0.52 ± 0.15 µg/cm^2/h | P1 (apparent partition coefficient) [3, 5]: 8.90 ± 5.52 × 10^–4 cm | P2 (apparent diffusion coefficient) [3, 5]: 13.40 ± 4.73 × 10^–3 h^−1 | tlag (lag time) [3, 5]: 13.52 ± 4.70 h | Jss (steady-state flux) [3, 6]: 0.14 ± 0.11 µg/cm^2/h | P1 (apparent partition coefficient) [3, 6]: 6.83 ± 5.64^a × 10^–4 cm | P2 (apparent diffusion coefficient) [3, 6]: 4.33 ± 0.52 × 10^–3 h^−1 | Permeation (cumulative amount of MTG permeated) [3, 6]: 1.53 ± 1.08 µg/cm^2 | tlag (lag time) [3, 6]: 38.85 ± 4.39^e,f h | Permeation (cumulative amount of MTG permeated) ([3]; 5%w/v MTG in Labrasol, receptor PBS without ascorbic acid, 48 h): 1.36 ± 1.45 µg/cm^2 | Jss (steady-state flux) [3, 7]: 0.11 ± 0.07 µg/cm^2/h | P1 (apparent partition coefficient) [3, 7]: 0.65 ± 0.09^a × 10^–4 cm | P2 (apparent diffusion coefficient) [3, 7]: 33.50 ± 18.62^b × 10^–3 h^−1 | Permeation (cumulative amount of MTG permeated) [3, 7]: 3.65 ± 2.40 µg/cm^2 | tlag (lag time) [3, 7]: 6.39 ± 4.02^e h | Permeation (cumulative amount of MTG permeated) ([3]; 5%w/v MTG in Lauroglycol, receptor PBS without ascorbic acid, 48 h): 0.77 ± 0.25 µg/cm^2 | Jss (steady-state flux) [3, 8]: 0.27 ± 0.07 µg/cm^2/h | P1 (apparent partition coefficient) [3, 8]: 2.18 ± 0.48^a × 10^–4 cm | P2 (apparent diffusion coefficient) [3, 8]: 25.90 ± 8.44 × 10^–3 h^−1 | Permeation (cumulative amount of MTG permeated) [3, 8]: 8.39 ± 2.61 µg/cm^2 | tlag (lag time) [3, 8]: 7.05 ± 2.82^e h | Jss (steady-state flux) [3, 9]: 0.10 ± 0.09 µg/cm^2/h | P1 (apparent partition coefficient) [3, 9]: 1.89 ± 1.95 × 10^–4 cm | P2 (apparent diffusion coefficient) [3, 9]: 12.86 ± 5.15 × 10^–3 h^−1 | Permeation (cumulative amount of MTG permeated) [3, 9]: 2.26 ± 1.93 µg/cm^2 | tlag (lag time) [3, 9]: 14.19 ± 4.62 h | Jss (steady-state flux) [3, 10]: 0.33 ± 0.12 µg/cm^2/h | P1 (apparent partition coefficient) [3, 10]: 9.49 ± 3.95 × 10^–4 cm | P2 (apparent diffusion coefficient) [3, 10]: 7.17 ± 0.89 × 10^–3 h^−1 | Permeation (cumulative amount of MTG permeated) [3, 10]: 6.06 ± 2.12 µg/cm^2 and 6.06 ± 2.13 µg/cm^2 | tlag (lag time) [3, 10]: 23.50 ± 2.93 h | Cumulative amount of MTG permeated [3, 11]: 5.24 ± 2.28 μg/cm^2 | Jss (steady-state flux) [3, 11]: 0.48 ± 0.37 µg/cm^2/h | P1 (apparent partition coefficient) [3, 11]: 25.55 ± 25.22 × 10^–4 cm | P2 (apparent diffusion coefficient) [3, 11]: 7.33 ± 6.13 × 10^–3 h^−1 | tlag (lag time) [3, 11]: 33.85 ± 20.70 h | Jss (steady-state flux) [3, 12]: 0.46 ± 0.22 µg/cm^2/h | P1 (apparent partition coefficient) [3, 12]: 10.40 ± 4.15 × 10^–4 cm | P2 (apparent diffusion coefficient) [3, 12]: 8.76 ± 0.55 × 10^–3 h^−1 | Permeation (cumulative amount of MTG permeated) [3, 12]: 10.27 ± 4.40 µg/cm^2 | tlag (lag time) [3, 12]: 19.07 ± 1.17 h | Jss (steady-state flux) [3, 13]: 0.44 ± 0.18 µg/cm^2/h | P1 (apparent partition coefficient) [3, 13]: 26.94 ± 23.48 × 10^–4 cm | P2 (apparent diffusion coefficient) [3, 13]: 4.29 ± 1.70 × 10^–3 h^−1 | Permeation (cumulative amount of MTG permeated) [3, 13]: 3.89 ± 1.41 µg/cm^2 | tlag (lag time) [3, 13]: 44.70 ± 22.17 h | Cumulative amount of MTG permeated ([3]; 5%w/v MTG in the rest of the solvents (other than DMSO), receptor PBS without ascorbic acid, 48 h): < 4 μg/cm^2 | Drug permeation ([3]; 5%w/v in Labrasol and Lauroglycol, optimised receptor medium): 1 – 4 μg/cm^2 | Mitragynine permeated ([3]; 5%w/v in Maisine and propylene glycol, optimised receptor medium): 6 – 8 µg/cm^2 | Mitragynine permeation [3, 14]: 10 – 15 µg/cm^2 | Skin fluxes [3, 14]: 0.5 – 0.8 µg/cm^2/h | MTG amount permeated with vs without ascorbic acid in receptor medium (times higher) ([3]; Transcutol-AA and Maisine-AA vs Transcutol and Maisine, 48 h): 3–4 times | Papp at 48 h, 5 %w/v [3, 4]: 0.00425 ×10⁻⁶ cm/s | Papp at 48 h, 5 %w/v [3, 5]: 0.00291 ×10⁻⁶ cm/s | Papp at 48 h, 5 %w/v [3, 6]: 0.000775 ×10⁻⁶ cm/s | Papp at 48 h, 5 %w/v [3, 7]: 0.000631 ×10⁻⁶ cm/s | Papp at 48 h, 5 %w/v [3, 8]: 0.00151 ×10⁻⁶ cm/s | Papp at 48 h, 5 %w/v [3, 10]: 0.00183 ×10⁻⁶ cm/s | Papp at 48 h, 5 %w/v [3, 11]: 0.00266 ×10⁻⁶ cm/s | Papp at 48 h, 5 %w/v [3, 12]: 0.00257 ×10⁻⁶ cm/s | Papp at 48 h, 5 %w/v [3, 13]: 0.00247 ×10⁻⁶ cm/s

From paper PMC12507957 (Drug Delivery and Translational Research, 2025)
